Experimental data reported in patent US5358951A, “Angiotensin II receptor blocking 2, 3, 6 substituted quinazolinones” (American Cyanamid Company, priority 1993, dated 1994).
Counter-ions that a name gives are not always drawn.

System: vasopressor response of angiotensin II
Assay: AII Challenge: antagonism of angiotensin II vasopressor response;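 on Response Average Change: post-dose Angiotensin II-evoked rise in systolic blood pressure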
Type: in vivo
Conditions: for inhibition in vivo at 0.5 mg/kg: 0.5 mg/kg i.v.; for inhibition in vivo at 0.3 mg/kg: 0.3 mg/kg i.v.
Summary of the method: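 Conscious male SHR (16-20 weeks) with aortic and caval cannulae received angiotensin II at 0.05 and 0.1 ug/kg i.v. before and 30-300 min after compound dosing (i.v., i.p. or oral). Blockade is expressed as % of each rat's predose rise in systolic pressure.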

[1] = 1 mg/kg P.O., AII 0.05 mcg/kg IV, 30 min post dose, sodium salt
[2] = 1 mg/kg P.O., AII 0.05 mcg/kg IV, 90 min post dose, sodium salt
[3] = 1 mg/kg P.O., AII 0.05 mcg/kg IV, 180 min post dose, sodium salt
[4] = 1 mg/kg P.O., AII 0.05 mcg/kg IV, 240 min post dose, sodium salt
[5] = 1 mg/kg P.O., AII 0.1 mcg/kg IV, 30 min post dose, sodium salt
[6] = 1 mg/kg P.O., AII 0.1 mcg/kg IV, 240 min post dose, sodium salt
[7] = Rattus norvegicus, iv, […], AII 0.1 mcg/kg IV, 90 min post dose

Compound: CCCCc1nc2ccc([C@@]3(C)C[C@@H]4CCCN4O3)cc2c(=O)n1Cc1ccc(-c2ccccc2-c2nnn[nH]2)cc1 (relative stereo) [Example 73, Cis-2-Butyl-6-(hexahydro-2-methylpyrrolo[1,2-b]isoxazol-2-yl)-3-[[2'-(1H-(tetrazol-5-yl)[1,1'-biphenyl-4-yl]methyl]-4(3H)-quinazolinone sodium salt]
- % Inhibition [1]: 31%
- Response Average Change [1]: 22.5 mmHg
- Response Average Change (1 mg/kg P.O., AII 0.05 mcg/kg IV, 60 min post dose, sodium salt): 12.5 mmHg
- % Inhibition [2]: 38%
- Response Average Change [2]: 20 mmHg
- Response Average Change (1 mg/kg P.O., AII 0.05 mcg/kg IV, 120 min post dose, sodium salt): 12.5 mmHg
- % Inhibition [3]: 23%
- Response Average Change [3]: 25 mmHg
- % Inhibition [4]: 15%
- Response Average Change [4]: 27.5 mmHg
- Response Average Change (1 mg/kg P.O., AII 0.05 mcg/kg IV, 300 min post dose): 25 mmHg
- % Inhibition [5]: 27%
- Response Average Change [5]: 27.5 mmHg
- Response Average Change (1 mg/kg P.O., AII 0.1 mcg/kg IV, 60 min post dose, sodium salt): 20 mmHg
- Response Average Change (1 mg/kg P.O., AII 0.1 mcg/kg IV, 90 min post dose, sodium salt): 22.5 mmHg
- Response Average Change (1 mg/kg P.O., AII 0.1 mcg/kg IV, 120 min post dose): 22.5 mmHg
- Response Average Change (1 mg/kg P.O., AII 0.1 mcg/kg IV, 180 min post dose, sodium salt): 22.5 mmHg
- % Inhibition [6]: 33%
- Response Average Change [6]: 25 mmHg
- Response Average Change (1 mg/kg P.O., AII 0.1 mcg/kg IV, 300 min post dose): 22.5 mmHg
- % Inhibition (1 mg/kg i.v., AII 0.05 mcg/kg IV, 60 min post dose): 83%
- inhibition in vivo at 0.5 mg/kg (Rattus norvegicus, iv, 0.5 h, AII 0.05 mcg/kg IV, 30 min post dose): 73%
- inhibition in vivo at 0.5 mg/kg (Rattus norvegicus, iv, 0.5 h, AII 0.1 mcg/kg IV, 30 min post dose): 67%
- inhibition in vivo at 1 mg/kg (Rattus norvegicus, iv, 0.5 h, 1 mg/kg i.v., AII 0.05 mcg/kg IV, 30 min post dose): 83%
- inhibition in vivo at 1 mg/kg (Rattus norvegicus, iv, 0.5 h, 1 mg/kg i.v., AII 0.1 mcg/kg IV, 30 min post dose): 74%
- inhibition in vivo at 0.1 mg/kg (Rattus norvegicus, iv, 1 h, 0.1 mg/kg i.v., AII 0.05 mcg/kg IV, 60 min post dose): 40%
- inhibition in vivo at 0.3 mg/kg (Rattus norvegicus, iv, 1 h, AII 0.1 mcg/kg IV, 60 min post dose): 25%
- inhibition in vivo at 0.5 mg/kg (Rattus norvegicus, iv, 1 h, AII 0.05 mcg/kg IV, 60 min post dose): 71%
- inhibition in vivo at 1 mg/kg (Rattus norvegicus, iv, 1 h, 1 mg/kg i.v., AII 0.05 mcg/kg IV, 60 min post dose): 83%
- inhibition in vivo at 1 mg/kg (Rattus norvegicus, iv, 1 h, 1 mg/kg i.v., AII 0.1 mcg/kg IV, 60 min post dose): 65%
- inhibition in vivo at 0.3 mg/kg (Rattus norvegicus, iv, 2 h, AII 0.05 mcg/kg IV, 120 min post dose): 41%
- inhibition in vivo at 0.3 mg/kg (Rattus norvegicus, iv, 2 h, AII 0.1 mcg/kg IV, 120 min post dose): 38%
- inhibition in vivo at 1 mg/kg (Rattus norvegicus, iv, 2 h, 1 mg/kg i.v., AII 0.05 mcg/kg IV, 120 min post dose): 83%
- inhibition in vivo at 1 mg/kg (Rattus norvegicus, iv, 2 h, 1 mg/kg i.v., AII 0.1 mcg/kg IV, 120 min post dose): 86%
- inhibition in vivo at 0.3 mg/kg (Rattus norvegicus, iv, 3 h, AII 0.05 mcg/kg IV, 180 min post dose): 36%
- inhibition in vivo at 1 mg/kg (Rattus norvegicus, iv, 3 h, 1 mg/kg i.v., AII 0.05 mcg/kg IV, 180 min post dose): 72%
- inhibition in vivo at 1 mg/kg (Rattus norvegicus, iv, 3 h, 1 mg/kg i.v., AII 0.1 mcg/kg IV, 180 min post dose): 42%
- inhibition in vivo at 0.3 mg/kg (Rattus norvegicus, iv, 4 h, AII 0.05 mcg/kg IV, 240 min post dose): 23%
- inhibition in vivo at 0.5 mg/kg (Rattus norvegicus, iv, 4 h, AII 0.1 mcg/kg IV, 240 min post dose): 39%
- inhibition in vivo at 1 mg/kg (Rattus norvegicus, iv, 4 h, 1 mg/kg i.v., AII 0.1 mcg/kg IV, 240 min post dose): 74%
- inhibition in vivo at 1 mg/kg (Rattus norvegicus, iv, 5 h, 1 mg/kg i.v., AII 0.05 mcg/kg IV, 300 min post dose): 50%
- inhibition in vivo at 1 mg/kg (Rattus norvegicus, iv, 5 h, 1 mg/kg i.v., AII 0.1 mcg/kg IV, 300 min post dose): 60%
- inhibition in vivo at 0.3 mg/kg (Rattus norvegicus, iv, […], AII 0.05 mcg/kg IV, 90 min post dose): 48%
- inhibition in vivo at 0.3 mg/kg [7]: 29%
- inhibition in vivo at 0.5 mg/kg [7]: 50%
- inhibition in vivo at 1 mg/kg (Rattus norvegicus, iv, […], 1 mg/kg i.v., AII 0.05 mcg/kg IV, 90 min post dose): 83%
- inhibition in vivo at 1 mg/kg (Rattus norvegicus, iv, […], 1 mg/kg i.v., AII 0.1 mcg/kg IV, 90 min post dose): 79%
- inhibition in vivo at 1 mg/kg (Rattus norvegicus, po, 1 h, 1 mg/kg P.O., AII 0.05 mcg/kg IV, 60 min post dose): 62%
- inhibition in vivo at 1 mg/kg (Rattus norvegicus, po, 1 h, 1 mg/kg P.O., AII 0.1 mcg/kg IV, 60 min post dose): 47%
- inhibition in vivo at 1 mg/kg (Rattus norvegicus, po, 2 h, 1 mg/kg P.O., AII 0.05 mcg/kg IV, 120 min post dose): 62%
- inhibition in vivo at 1 mg/kg (Rattus norvegicus, po, 2 h, 1 mg/kg P.O., AII 0.1 mcg/kg IV, 120 min post dose): 40%
- inhibition in vivo at 1 mg/kg (Rattus norvegicus, po, 3 h, 1 mg/kg P.O., AII 0.1 mcg/kg IV, 180 min post dose): 40%
- inhibition in vivo at 1 mg/kg (Rattus norvegicus, po, 5 h, 1 mg/kg P.O., AII 0.05 mcg/kg IV, 300 min post dose): 23%
- inhibition in vivo at 1 mg/kg (Rattus norvegicus, po, 5 h, 1 mg/kg P.O., AII 0.1 mcg/kg IV, 300 min post dose): 40%
- inhibition in vivo at 1 mg/kg (Rattus norvegicus, po, […], 1 mg/kg P.O., AII 0.1 mcg/kg IV, 90 min post dose): 40%
